Laboratory results taken from PMC5460289, “Identification of New Shikonin Derivatives as Antitumor Agents Targeting STAT3 SH2 Domain” (Scientific Reports, 2017).

Tests used:
[1] = test system: IL-6-induced STAT3 phosphorylation in MDA-MB-231 cells; assay: IL-6 induction of STAT3 phosphorylation (Western blot); type: cell-based, human; settings: 2 μM pretreatment 24 h, IL-6 (20 ng/mL) 30 min
Protocol: Figure 6 (A) PMM-172 suppressed constitutive pSTAT3 (Tyr705) in a dose-dependent manner. (B) PMM-172 suppressed constitutive pSTAT3 (Tyr705) in a time-dependent manner. (C) MDA-MB-231 cells were treated with IL-6 (20 ng/mL) or vehicle for 30 min, with or without pretreatment with PMM-172 (2 μM) for 24 h. PMM-172 inhibited IL-6 induced phosphorylation of STAT3. (D) Stattic suppressed constitutive pSTAT3 (Tyr705) in a dose-dependent manner. (E) Stattic suppressed constitutive pSTAT3 (Tyr705) in a time-dependent manner. (F) Tyrosine phosphorylation of two STAT family proteins STAT1 and STAT5 were detected with specific antibodies. […] Data were shown as mean ± SD of three independent experiments. *P < 0.05, **P < 0.01. Cropped blots/gels were used in the figure and the gels had been run under the same experimental conditions; the full-length blots/gels are presented in Supplementary Figure S2.
We further investigated whether PMM-172 could inhibit IL-6-induced STAT3 phosphorylation in MDA-MB-231 cells.
Cells were seeded in 10 cm plates and allowed to adhere overnight. The following day, the specimen was serum starved for 24 h. The specimen was then treated with or without tested agents at the dose of 2 μM. […] Cells were then harvested after 30 min and analyzed by Western blot.

MDA-MB-231 cells = assay: Annexin V/PI double staining apoptosis assay (flow cytometry); type: cell-based, human; settings: for percentage of cell apoptosis (early and late apoptotic cells): 24 h, MDA-MB-231, control 3.12%
Protocol: To determine whether PMM-172 induced apoptosis, Annexin V/PI double staining assay was conducted. MDA-MB-231 cells were treated with various concentrations of PMM-172 for 24 h, and the percentage of apoptotic cells was markedly elevated in a dose-dependent manner. Likewise, MDA-MB-231 cells were treated with corresponding doses of Stattic. […] The percentages of cell apoptosis 3.12%, 8.12%, 16.81%, 62.74% corresponded to the concentration of PMM-172 0, 2, 4 and 8 μM, respectively, including both the early and the late apoptotic cells. Clearly, PMM-172 can cause cell apoptosis more effectively than Stattic. Moreover, an extend time-course apoptosis analysis of MDA-MB-231 cells treated with 4 μM PMM-172 was carry out. […] To further assess the pro-apoptotic effect of PMM-172, we evaluated the cleavage of poly (ADP-ribose) polymerase (PARP) and caspase 3 in MDA-MB-231 cells after 24 h treatment with PMM-172. In this case, the active form of PARP involved in DNA repair and programmed cell death is considered as the hallmark of apoptosis.
Figure 4 The effect of PMM-172 on the cell apoptosis of MDA-MB-231 cells. (A) MDA-MB-231 cells were treated with various concentrations of PMM-172 or Stattic for 24 h, or treated with 4 μM PMM-172 for different time. Apoptosis was analyzed by flow cytometry by using Annexin V/PI double staining. (B) The percentage of apoptotic cells in MDA-MB-231 cells treated with various concentrations of PMM-172 for 24 h. (C) The percentage of apoptotic cells in MDA-MB-231 cells treated with 4 μM PMM-172 for different time. (D) The percentage of apoptotic cells in MDA-MB-231 cells treated with various concentrations of Stattic for 24 h. (E) PARP and caspase 3 cleavage in MDA-MB-231 cells after treated with various concentrations of PMM-172 for 24 h were detected by using Western blot analysis. The relative expression level was analyzed by Image J software. […]
Approximately 10^5 cells/well were plated in a 24 well plate and allowed to adhere. […] The samples were then analyzed by a FACSCalibur flow cytometer (Becton Dickinson, San Jose, CA, USA).

COc1cc(OC)cc(-c2nnc(SCC(=O)O[C@H](CC=C(C)C)C3=CC(=O)c4c(O)ccc(O)c4C3=O)o2)c1 [PMM-172, (R)-1-(5,8-dihydroxy-1,4-dioxo-1,4-dihydronaphthalen-2-yl)-4-methylpent-3-en-1-yl 2-((5-(3,5-dimethoxyphenyl)-1,3,4-oxadiazol-2-yl)thio)acetate]
IL-6-induced STAT3 phosphorylation [1]: suppressed IL-6-induced STAT3 phosphorylation
percentage of cell apoptosis (early and late apoptotic cells) (MDA-MB-231 cells; 4 μM): 16.81%
percentage of cell apoptosis (early and late apoptotic cells) (MDA-MB-231 cells; 8 μM): 62.74%
induction of apoptosis (MDA-MB-231 cells; MDA-MB-231, Annexin V/PI): induced apparent apoptosis in MDA-MB-231 cells in dose- and time- dependent manners
